Source: US4311699A, “Aminoacid derivatives of cephalosporin compounds” (priority 1980, dated 1982)
≈ marks a conversion by molar mass, not a printed value. Like-named read-outs stand apart in the source and are kept apart here.

Assays:
Experiment in all cases: in vitro antibacterial activity, minimal inhibitory concentration
Format in all cases: cell-based
Pseudomonas #28 = conditions: read-out: Minimal Inhibitory Concentration
Source text: (§1) The compounds of the invention are new chemical compounds that are used as pharmacological agents and especially as broad spectrum antibacterial agents. They are active in vitro against strains of both gram-positive and gram-negative bacteria.
(§2) Minimal Inhibitory Concentration (μg/ml)

Entero. cloacae = conditions: for MIC: Enterobacter cloacae
Source text: as §1, §2

Prot. vulg. = tested on: Prot. vulg.
Source text: as §1, §2

Klebs. pneu. = tested on: Klebs. pneu.
Source text: as §1, §2

Staph. aureus UC-76 = conditions: Staph. aureus UC-76, in vitro; for MIC: Staphylococcus aureus, UC76
Source text: as §1, §2

Serr. marces. = tested on: Serr. marces.
Source text: as §1, §2

Pseudomonas BRK 12-4-4 = conditions: Pseudomonas BRK 12-4-4, in vitro; for MIC: BRK1244
Source text: as §1, §2

E. coli Vogel = conditions: for MIC: Escherichia coli
Source text: as §1, §2

E. coli Brig = conditions: for MIC: Escherichia coli
Source text: as §1, §2

Pseudomonas UI 18 = conditions: UI18; Pseudomonas UI 18, in vitro
Source text: as §1, §2

Strep. fec. = tested on: Strep. fec.
Source text: as §1, §2

Staph. aureus S18733 = conditions: for MIC: Staphylococcus aureus
Source text: as §1, §2

| Structure (SMILES) | MIC (Pseudomonas #28; Pseudomonas #28, in vitro) | MIC (Entero. cloacae) | MIC (Prot. vulg.) | MIC (Klebs. pneu.) | MIC (Staph. aureus UC-76) | MIC (Serr. marces.) | MIC (Pseudomonas BRK 12-4-4) | MIC (E. coli Vogel) | MIC (E. coli Brig) | MIC (Pseudomonas UI 18) | MIC (Strep. fec.) | MIC (Staph. aureus S18733) | other results |
| --- | --- | --- | --- | --- | --- | --- | --- | --- | --- | --- | --- | --- | --- |
| CC(=O)NC(CC(C)C)C(=O)Nc1ccc(-c2ncc(C(=O)N[C@@H](C(=O)N[C@@H]3C(=O)N4C(C(=O)O)=C(COC(C)=O)CS[C@H]34)c3ccccc3)c(O)n2)cc1 (mixture of isomers) [Example 4, N-[2-[4-(N-Acetyl-DL-leucylamino)phenyl]-4-hydroxy-5-pyrimidinylcarbonyl]-7-[D-2-amino-2-phenylacetamido]-3-acetoxymethyl-3-cephem-4-carboxylic acid] | 12.5 µg/mL | 25 µg/mL | 25 µg/mL | 25 µg/mL | 1.6 µg/mL | > 50 µg/mL | 12.5 µg/mL | 6.3 µg/mL | 25 µg/mL | 12.5 µg/mL | 50 µg/mL | 6.3 µg/mL | – |
| CSCCC(NC(C)=O)C(=O)Nc1ccc(-c2ncc(C(=O)N[C@@H](C(=O)N[C@@H]3C(=O)N4C(C(=O)O)=C(COC(C)=O)CS[C@H]34)c3ccccc3)c(O)n2)cc1 (mixture of isomers) [Example 5, N-[2-[4-(N-Acetyl-DL-methionylamino)phenyl]-4-hydroxy-5-pyrimidinylcarbonyl]-7-[D-2-amino-2-phenylacetamido]-3-acetoxymethyl-3-cephem-4-carboxylic acid] | 3.1 µg/mL | 25 µg/mL | 25 µg/mL | 12.5 µg/mL | 1.6 µg/mL | > 50 µg/mL | 6.3 µg/mL | 6.3 µg/mL | 25 µg/mL | 6.3 µg/mL | 50 µg/mL | 3.1 µg/mL | – |
| CC(=O)OCC1=C(C(=O)O)N2C(=O)[C@@H](NC(=O)[C@H](NC(=O)c3cnc(-c4ccc(NC(=O)C5CCC(=O)N5)cc4)nc3O)c3ccccc3)[C@H]2SC1 (mixture of isomers) [Example 6, N-[2-]4-((5-oxo-DL-prolyl)amino)phenyl]-4-hydroxy-5-pyrimidinylcarbonyl]-7-[D-2-amino-2-phenylacetamido]-3-acetoxymethyl-3-cephem-4-carboxylic acid] | – | 50 µg/mL | 50 µg/mL | 25 µg/mL | 1.6 µg/mL | > 50 µg/mL | 12.5 µg/mL | 12.5 µg/mL | 50 µg/mL | 12.5 µg/mL | 50 µg/mL | 6.3 µg/mL | MIC (Pseudomonas #28; Pseudomonas): 6.3 µg/mL |
| CC(=O)NC(C)C(=O)Nc1ccc(-c2ncc(C(=O)N[C@@H](C(=O)N[C@@H]3C(=O)N4C(C(=O)O)=C(COC(C)=O)CS[C@H]34)c3ccccc3)c(O)n2)cc1 (mixture of isomers) [Example 8, N-[2-[4-(N-Acetyl-DL-alanylamino)phenyl]-4-hydroxy-5-pyrimidinylcarbonyl]-7-[D-2-amino-2-phenylacetamido]-3-acetoxymethyl-3-cephem-4-carboxylic acid] | 6.3 µg/mL | 50 µg/mL | 50 µg/mL | 6.3 µg/mL | 1.6 µg/mL | > 50 µg/mL | 12.5 µg/mL | 6.3 µg/mL | 25 µg/mL | 6.3 µg/mL | 50 µg/mL | 1.6 µg/mL | – |
| CC(=O)NC(C)C(=O)Nc1ccc(-c2ncc(C(=O)N[C@@H](C(=O)N[C@@H]3C(=O)N4C(C(=O)O)=C(COC(C)=O)CS[C@H]34)c3ccc(O)cc3)c(O)n2)cc1 (mixture of isomers) [Example 9, N-[2-[4-(N-Acetyl-DL-alanylamino)phenyl]-4-hydroxy-5-pyrimidinylcarbonyl]-7-[D-2-amino-2-(4-hydroxyphenyl)acetamido]-3-acetoxymethyl-3-cephem-4-carboxylic acid] | 1.6 µg/mL | 50 µg/mL | 12.5 µg/mL | 12.5 µg/mL | 3.1 µg/mL | > 50 µg/mL | 3.1 µg/mL | 12.5 µg/mL | 50 µg/mL | 3.1 µg/mL | 50 µg/mL | 6.3 µg/mL | – |
| CC(=O)NCCCCC(NC(C)=O)C(=O)Nc1ccc(-c2ncc(C(=O)N[C@@H](C(=O)N[C@@H]3C(=O)N4C(C(=O)O)=C(COC(C)=O)CS[C@H]34)c3ccccc3)c(O)n2)cc1 (mixture of isomers) [Example 12, N-[2-[4-(N^α,N^ω -Diacetyl-DL-lysylamino)phenyl]-4-hydroxy-5-pyrimidinylcarbonyl]-7-[D-2-amino-2-phenylacetamido]-3-acetoxymethyl-3-cephem-4carboxylic acid] | 6.3 µg/mL | 25 µg/mL | 50 µg/mL | 25 µg/mL | 1.6 µg/mL | > 50 µg/mL | 12.5 µg/mL | 6.3 µg/mL | 50 µg/mL | 6.3 µg/mL | 50 µg/mL | 6.3 µg/mL | – |
| CC(=O)OCC1=C(C(=O)O)N2C(=O)[C@@H](NC(=O)[C@H](NC(=O)c3cnc(-c4ccc(NC(=O)C5CCCN5C(C)=O)cc4)nc3O)c3ccccc3)[C@H]2SC1 (mixture of isomers) [Example 13, N-[2-[4-(N-Acetyl-DL-prolylamino)phenyl]-4-hydroxy-5-pyrimidinylcarbonyl]-7-[D-2-amino-2-phenylacetamido]-3-acetoxy-methyl-3-cephem-4-carboxylic acid] | 6.3 µg/mL | 50 µg/mL | 50 µg/mL | 25 µg/mL | 3.1 µg/mL | > 50 µg/mL | 12.5 µg/mL | 12.5 µg/mL | 50 µg/mL | 12.5 µg/mL | 50 µg/mL | 6.3 µg/mL | – |
| CC(=O)NC(CCC(N)=O)C(=O)Nc1ccc(-c2ncc(C(=O)N[C@@H](C(=O)N[C@@H]3C(=O)N4C(C(=O)O)=C(COC(C)=O)CS[C@H]34)c3ccccc3)c(O)n2)cc1 (mixture of isomers) [Example 14, N-[2-[4-(N-Acetyl-DL-glutaminylamino)phenyl]-4-hydroxy-5-pyrimidinylcarbonyl]-7-[D-2-amino-2phenylacetamido]-3-acetoxymethyl-3-cephem-4-carboxylic acid] | 6.3 µg/mL | 50 µg/mL | 25 µg/mL | 12.5 µg/mL | 1.6 µg/mL | > 50 µg/mL | 12.5 µg/mL | 6.3 µg/mL | 25 µg/mL | 12.5 µg/mL | 50 µg/mL | 6.3 µg/mL | – |
| CC(=O)NCC(=O)Nc1ccc(-c2ncc(C(=O)N[C@@H](C(=O)N[C@@H]3C(=O)N4C(C(=O)O)=C(COC(C)=O)CS[C@H]34)c3ccccc3)c(O)n2)cc1 [Example 7, N-[2-[4-(N-Acetylglycylamino)phenyl]-4-hydroxy-5-pyrimidinylcarbonyl]-7-[D-2-amino-2-phenylacetamido]-3-acetoxymethyl-3-cephem-4-carboxylic acid] | – | 25 µg/mL (≈ 34.8 µM) | – | 6.3 µg/mL (≈ 8.78 µM) | – | – | – | – | – | 12.5 µg/mL (≈ 17.4 µM) | 50 µg/mL (≈ 69.7 µM) | – | – |
| CC(=O)N1C[C@H](O)C[C@H]1C(=O)Nc1ccc(-c2ncc(C(=O)N[C@@H](C(=O)NC3C(=O)N4C(C(=O)O)=C(CSc5nnnn5CC(=O)O)CS[C@H]34)c3ccccc3)c(O)n2)cc1 (stereo partly drawn) [Example 36, N-[2-[4-(N-Acetyl-L-hydroxyprolylamino)phenyl]-4-hydroxy-5-pyrimidinylcarbonyl]-7-[D-2-amino-2-phenylacetamido]-3-[[(1-carboxymethyl-1H-tetrazol-5-yl)thio]methyl]-3-cephem-4-carboxylic acid] | – | – | – | – | – | – | – | – | – | – | – | – | Minimal Inhibitory Concentration (Entero. cloacae): 12.5 µg/mL; Minimal Inhibitory Concentration (Prot. vulg.): 6.3 µg/mL; Minimal Inhibitory Concentration (Klebs. pneu.): 6.3 µg/mL; Minimal Inhibitory Concentration (Staph. aureus UC-76): 12.5 µg/mL; Minimal Inhibitory Concentration (Serr. marces.): 50 µg/mL; Minimal Inhibitory Concentration (Pseudomonas BRK 12-4-4): 12.5 µg/mL; Minimal Inhibitory Concentration (E. coli Vogel): 6.3 µg/mL; Minimal Inhibitory Concentration (E. coli Brig): 12.5 µg/mL; Minimal Inhibitory Concentration (Strep. fec.): > 50 µg/mL; Minimal Inhibitory Concentration (Staph. aureus S18733): 25 µg/mL |
